The values below come from EP1161417B1, “METHODS AND COMPOSITIONS FOR TREATING LEUKEMIA” (HSC Research and Development Limited Partnership, priority 1999, dated 2000).

In one data set the target is T1, Jak2 kinase (Homo sapiens, UniProt O60674).
T1 construct: Jak2 kinase was immunoprecipitated from a 1% Triton-X100 lysate of 10x10^6 G2 cells; endogenous in cells; host or cells: G2 pre-B leukemia cell line
Briefly: in vitro kinase assay on Jak2 immunoprecipitated from G2 cell lysate. The format is biochemical. The conditions noted are these: scanning autoradiographs of the kinase assays. The method, then: Compounds chosen on the basis of their ability to inhibit the growth (colony formation) of the pre-B leukemia cell line G2 were tested for inhibition of Jak2 kinase.
Jak2 kinase was immunoprecipitated from a 1% Triton-X100 lysate of 10x10^6 G2 cells. An in vitro kinase assay was performed on the immunoprecipitated Jak2 in the presence or absence of varying concentrations of the compounds AG 1977, AG 1978, AG 2009 and AG 2010.
Stock solutions of 100mM tyrphostin were made in 100% DMSO and further dilutions made in 10% DMSO. Control kinase assays carried out in the presence of DMSO concentrations of 5-30% alone were unaffected by its presence.
Initial experiments were done with tyrphostin concentrations of 0.1, 1.0 and 10µM. These concentrations had no affect on the kinase activity of Jak2. […]

A further data set concerns G2 ALL cells. Briefly: clonogenic assay, inhibition of colony formation of ALL cell line G2. The format is cell-based, human. The method, then: Inhibition of colony formation was studied by methods described previously (Kamel-Reid et al., (1992), Leukemia, v. 6, pp. 8-17; Meydan et al., (1996), Nature, v. 379, pp. 645-648).
ALL cell lines A1 (at 8x10^5 cells/ml), C1 (at 4x10^4 cells/ml) and G2 (at 1.15x10^6 cells/ml) were plated in 1 ml volumes, in the absence of exogenous growth factors, into 35 mm petri dishes (Nunc, Gibco) containing alpha MEM (Gibco) plus 10% FCS (Cansera Rexdale, Ont.) in 0.9% (vol/vol) methylcellulose (Fluka, Switzerland). Cultures were set up at 37°C with 5% CO2 in a humidified atmosphere and 10 uM of a selected tyrphostin was added. Colonies consisting of more than 20 cells were counted at 12 days (A1), 5 days (C1) and 14 days (G2) using an inverted microscope. Similar results were obtained with A1 and C1.
Various concentrations of tyrphostins were tested for inhibition of ALL cells in the clonogenic assay described in Example 2. Compounds AG 1977. 1978, 2007, 2008, 2009 and 2010 were tested against ALL cell lines A1, C1 and G2 in doses ranging from nanomolar to micromolar values.

For a further data set, the system named is normal bone marrow cells. Kind of data set: modified CFU-GEMM clonogenic assay on normal bone marrow cells. Format: cell-based, human. The conditions noted are these: 40µM. The protocol:
Compounds showing inhibition of ALL colony formation were examined for their effect on normal bone marrow cells using a modified CFU-GEMM clonogenic assay.
The assay was performed according to Fauser and Messner (1978), Blood, v. 52, pp. 1243-8, and Messner and Fausser (1980), Blut, v. 41, pp. 327-333, with some variations. In brief, heparinized bone marrow cells were layered over Percoll (Pharmacia Fine Chemical. Piscataway N.J.) at a density of 1.077 gm/ml and centrifuged at 400 g at 4°C for 10 min. to remove neutrophils and RBCs. The fractionated bone marrow cells at 2x10^5 cells/ml were cultured in IMDM (OCI, Toronto) containing 0.9% (vol/vol) methylcellulose supplemented with 30% FCS (Cansera Rexdale, Ont.) or normal human plasma, a cocktail of cytokines consisting of G-CSF (10 ng/ml. Amgen), IL-3 (40 U/ml, Immunex), MGF (50 ng/ml, Immunex), Erythropoietin (2u/ml, Epprex) or TPO (10 ng/ml, Amgen) and 5x10^-5 2-mercaptoethanol. The culture mixture was plated in 1 ml volumes into 35 mm petri dishes and incubated at 37°C with 5% CO2 in a humidified atmosphere with concentrations of tyrphostin up to 40 µm.

Molecules are shown by their SMILES.

T1 sequence (O60674 whole entry): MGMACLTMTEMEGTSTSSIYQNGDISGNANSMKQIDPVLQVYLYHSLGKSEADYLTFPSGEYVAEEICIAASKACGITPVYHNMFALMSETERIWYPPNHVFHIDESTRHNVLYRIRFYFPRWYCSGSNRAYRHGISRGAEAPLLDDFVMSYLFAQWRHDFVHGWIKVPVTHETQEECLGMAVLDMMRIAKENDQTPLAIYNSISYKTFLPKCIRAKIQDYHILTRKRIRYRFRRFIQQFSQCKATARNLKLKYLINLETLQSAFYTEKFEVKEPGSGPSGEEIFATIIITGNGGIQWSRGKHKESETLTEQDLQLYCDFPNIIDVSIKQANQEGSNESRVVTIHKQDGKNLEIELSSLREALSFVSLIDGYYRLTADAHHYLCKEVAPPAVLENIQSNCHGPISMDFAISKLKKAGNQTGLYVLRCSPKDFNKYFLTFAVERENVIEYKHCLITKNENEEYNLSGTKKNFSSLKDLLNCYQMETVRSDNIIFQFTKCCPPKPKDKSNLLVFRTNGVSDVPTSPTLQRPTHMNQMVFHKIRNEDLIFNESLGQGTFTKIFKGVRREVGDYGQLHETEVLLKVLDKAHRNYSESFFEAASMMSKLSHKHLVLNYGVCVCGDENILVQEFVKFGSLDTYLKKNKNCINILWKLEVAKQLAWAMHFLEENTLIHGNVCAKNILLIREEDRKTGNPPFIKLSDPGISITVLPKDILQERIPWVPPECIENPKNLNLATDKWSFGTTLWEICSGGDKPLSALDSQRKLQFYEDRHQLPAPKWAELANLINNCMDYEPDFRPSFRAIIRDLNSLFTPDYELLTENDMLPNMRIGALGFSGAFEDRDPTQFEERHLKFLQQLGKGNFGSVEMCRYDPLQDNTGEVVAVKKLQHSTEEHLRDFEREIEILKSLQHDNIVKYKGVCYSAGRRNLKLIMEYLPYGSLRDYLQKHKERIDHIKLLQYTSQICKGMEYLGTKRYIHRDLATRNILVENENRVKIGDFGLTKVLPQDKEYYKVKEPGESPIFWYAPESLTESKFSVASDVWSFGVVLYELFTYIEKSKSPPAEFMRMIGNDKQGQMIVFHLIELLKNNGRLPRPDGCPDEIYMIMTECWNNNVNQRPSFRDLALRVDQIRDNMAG

For `N#C/C(=C\c1cc(O)c(O)c(CSCc2ccccc2)c1)C(=O)NCc1ccccc1` [AG 1977, N-benzyl-2-cyano-3-(3',4'-dihydroxy-5'-methylenethiobenzylphenyl) acrylamide], the entries for the “%inhibition of kinase activity” value at Jak2 kinase (5µM tyrphostin), at Jak2 kinase (25µM tyrphostin) and at Jak2 kinase (50µM tyrphostin) were 23%, 14% and 15%, respectively.

In the case of `N#C/C(=C\c1cc(O)c(O)c(CSc2ccccc2)c1)C(=O)NCc1ccccc1` [AG 1978, N-benzyl-2-cyano-3-(3',4-dihydroxy-5'-methylenethiophenylphenyl) acrylamide], the “%inhibition of kinase activity” value was 10% at Jak2 kinase (5µM tyrphostin), 13% at Jak2 kinase (25µM tyrphostin) and 46% on Jak2 kinase (50µM tyrphostin).

Broadly, the inhibition is the percentage by which the read-out fell short of the control. Read a high inhibition as a strong effect. On to `N#C/C(=C\c1cc(O)c(O)c(CSCCc2ccccc2)c1)C(=O)NCc1ccccc1` [AG 2009, N-benzyl-2-cyano-3-(3',4'-dihydroxy-5'-(methylenethioethylphenyl)phenyl) acrylamide], for which the “%inhibition of kinase activity” value on Jak2 kinase (5µM tyrphostin) was found to be 0%; at Jak2 kinase (25µM tyrphostin), 0%; on Jak2 kinase (50µM tyrphostin) it was 8%. Further, the inhibition at 0.016 µM in the data set on G2 ALL cells (Homo sapiens, dose of 16nM, G2 cells) was over 50%. Moreover, in the data set on G2 ALL cells (against G2 cells, dose responsive (Fig. 13), compared with AG 1977, 1978, 2007, 2008, 2010), the clonogenic inhibition result was “most potent clonogenic inhibition”. Besides, the differential therapeutic index result in the data set on G2 ALL cells (survival curve of normal BM and G2 colonies (Fig. 14)) is “greater than 2 logs”.

For `N#C/C(=C\c1cc(O)c(O)c(CSCCCc2ccccc2)c1)C(=O)NCc1ccccc1` [AG 2010, N-benzyl-2-cyano-3-(3',4'-dihydroxy-5'-(methylenethiopropylphenyl)phenyl) acrylamide], the “%inhibition of kinase activity” value at Jak2 kinase (5µM tyrphostin) turned out to be 5%; at Jak2 kinase (25µM tyrphostin), 5%; at Jak2 kinase (50µM tyrphostin), 39%. Also, the “inhibition of normal bone marrow colonies” value with normal bone marrow cells is recorded as “significant inhibition”.
